# Reference: patent US11801266B2, “Methods of using anti-MIR126 compounds” (CITY OF HOPE, priority 2019, dated 2023)
# Assays:
# CML LSCs = experiment: In vivo treatment of CML mice (SCLtTA/BCR-ABL BM cells transplanted into congenic B6 mice); design: species or system mouse; conditions: CML mice, 3 weeks of treatment, followed 60 days after treatment discontinuation
# Protocol: Next, we transplanted BM cells from SCLtTA/BCR-ABL mice (CD45.2) into congenic B6 mice (CD45.1). Following confirmation of CML development at 4 weeks after transplantation, mice were treated as above with scrRNA, inhibitor, scrRNA+NIL, or inhibitor+NIL for 3 weeks.
# human CML HSCs = experiment: NIL treatment of human CML HSCs: miR-126, PIK3R2, SPRED1 expression and cell cycle; assay type: cell-based
# Protocol: After transduction performed as above, GFP+ cells selected at 48 h were exposed to NIL (2 μM and 5 μM, Novartis) for another 72 h, and analyzed using assays for cell growth, apoptosis, cell cycle, CFC and CFC replating. Human HSCs and mouse LT-HSCs were also treated with CpG-miR-126 inhibitor or CpG-scrRNA (500 nM), with or without NIL (5 μM), for 72 h and analyzed for cell growth, apoptosis, cell cycle and CFC. Human CML HSCs co-cultured with control or miR-126 KD HUVECs and mouse CML LT-HSCs co-cultured with control or miR-126 KD ECs for 96 h, with or without NIL (5 μM), were also analyzed for cell growth, apoptosis, cell cycle and CFC. Cell growth was measured by Lumino Glo (Promega). Apoptosis was measured by labeling cells with Annexin V-PE or FITC or APC and 4, 6-diamidino-2-phenylindole (DAPI) (all from BD-PharMingen, San Diego, Calif.) and analyzed by flow cytometry. Cell cycle was analyzed by Ki-67-Alexa Fluor 647 (B56, BD) and DAPI labeling based on the manufacturer's protocol. Cells were also exposed to EdU (C10640, Invitrogen) for 2 h and EdU staining was analyzed according to the manufacturer's protocol. Cell proliferation was also measured by CFSE staining (Molecular probes) based on the manufacturer's protocol. For CFC, Lin-CD34+CD38− cells cultured with or without NIL (5 μM) were plated in methylcellulose progenitor culture, and burst-forming unit-erythroid and colony-forming unit-granulocyte and macrophage cells were counted after 14 days. […]
# To measure the miRNA and mRNA expression, total RNA was extracted using the miRNeasy Mini Kit (Qiagen, Valencia, Calif.). […] BCR-ABL expression in human and mouse samples were measured with primer and probe sequences for BCR-ABL (B3A2 or B2A2), as previously described^46. […]
# K562, HUVEC, normal and CML CD34+CD38− cells were cultured and incubated with miR126 SmartFlare RNA probe (EMD Millipore) for 16 h. […] Nuclei were counterstained with DAPI and the images were analyzed using a confocal microscope (Carl Zeiss).
# human BCR-ABL+K562 cells = experiment: NIL treatment of K562 cells: miR-126 staining; assay type: cell-based; conditions: K562 cells with and without 5 μM NIL
# Protocol: K562, HUVEC, normal and CML CD34+CD38− cells were cultured and incubated with miR126 SmartFlare RNA probe (EMD Millipore) for 16 h. […] Cells were then washed in 1× phosphate buffered saline (PBS) and fixed in 4% paraformaldehyde for 3 min. Nuclei were counterstained with DAPI and the images were analyzed using a confocal microscope (Carl Zeiss).
# CML LT-HSCs = experiment: NIL treatment of miR-126flox/wt/Tie2+ or Tie2− mice transplanted with CML LT-HSCs; assay type: in vivo, mouse; conditions: NIL 50 mg/kg daily oral gavage for 3 weeks
# Protocol: Next, we sorted CML LT-HSCs from induced CD45.1/CD45.2 SCLtTA/BCR-ABL mice and transplanted them into CD45.2 miR-126^flox/wt/Tie2+ (heterozygous miR-126 KO allele in ECs) or Tie2− (WT miR-126 allele in ECs) mice. After confirming CML development, we treated the mice with NIL (50 mg/kg, daily by oral gavage) or vehicle for 3 weeks.
# Animal studies. Inducible transgenic SCLtTA/BCR-ABL mice in the FVB/N background^37,38 were backcrossed to the B6 background (CD45.2) for 10 generations. Transgenic BCR-ABL mice were maintained on tetracycline water at 0.5 g/L. Withdrawal of tetracycline results in expression of BCR-ABL and generation of a CML-like disease in these mice^37,38. Unless otherwise indicated, BCR-ABL expression was induced for 2-3 weeks by tetracycline withdrawal in 6-8 weeks old male and female mice and then BM cells (from both tibias and femurs) were collected for experiments. SCLtTA/BCR-ABL mice (CD45.2, B6) were also bred with CD45.1 B6 mice to produce CD45.1/CD45.2 SCLtTA/BCR-ABL mice as donors. miR-126^flox/flox mice (B6, from Dr. Kuo, Stanford) were crossed with Mx1-cre, Tie2-cre (both from The Jackson Laboratory) and SCLtTA/BCR-ABL mice (all B6) to obtain the following strains: miR-126^flox/flox/Mx1-cre, SCLtTA/BCR-ABL/miR-126^flox/flox/Mx1-cre, miR-126^flox/wt/Tie2-cre and miR-126^flox/flox/Tie2-cre. […]
# [1] = tested on: BCR-ABL+ primary CD34+ and/or K562 cells; assay type: cell-based, human
# Protocol: Nuclei were counterstained with DAPI.
# (§1) Proteins were resolved on 10% sodium dodecyl sulfate-polyacrylamide gel electrophoresis (SDS-PAGE) gels and transferred to nitrocellulose membrane. Membranes were sequentially reprobed with primary and secondary antibodies. […] Horseradish peroxidase-conjugated secondary antibodies were from Jackson ImmunoResearch Laboratories (Westgrove, Pa.). Antibody detection was performed using the Superfemto kit (Pierce Biotechnology, Rockford, Ill.). Protein levels were determined by densitometry using Image-Quant software (Amersham Pharmacia Biotech, Piscataway, N.J.).
# CML CD34+ cells = experiment: MAPK/ERK, BCL-2 and apoptosis in NIL-treated CML CD34+ cells; assay type: cell-based, human
# Protocol: After transduction performed as above, GFP+ cells selected at 48 h were exposed to NIL (2 μM and 5 μM, Novartis) for another 72 h, and analyzed using assays for cell growth, apoptosis, cell cycle, CFC and CFC replating. […] Cell growth was measured by Lumino Glo (Promega). Apoptosis was measured by labeling cells with Annexin V-PE or FITC or APC and 4, 6-diamidino-2-phenylindole (DAPI) (all from BD-PharMingen, San Diego, Calif.) and analyzed by flow cytometry. […] Cells were also exposed to EdU (C10640, Invitrogen) for 2 h and EdU staining was analyzed according to the manufacturer's protocol. Cell proliferation was also measured by CFSE staining (Molecular probes) based on the manufacturer's protocol. For CFC, Lin-CD34+CD38− cells cultured with or without NIL (5 μM) were plated in methylcellulose progenitor culture, and burst-forming unit-erythroid and colony-forming unit-granulocyte and macrophage cells were counted after 14 days. Colony replating assays were performed by collecting and pooling colonies from primary CFC assays and plating 10,000 cells in secondary CFC assays.
# as §1
# [2] = CML CD34+ cells, NIL treatment, western blot
compound,measurement,setting,value
"5′ G*G*T GCA TCG ATG CAGG*G*G* G*G xxxxx mGmUmA mGmAmA mCmCmG mUmAmC mUmCmG mUmCmA mCmUmU mA 3′ (GGTGCATCGATGCAGGGGGGGUAGAACCGUACUCGUCACUUA; phosphorothioate, 2'-O-methyl, linker; (1)..(2) phosphorothioation; (2)..(3) phosphorothioation; (16)..(17) phosphorothioation; (17)..(18) phosphorothioation; (18)..(19) phosphorothioation; (19)..(20) phosphorothioation; (20)..(21) ((CH2)3)5; (20)..(21) Five C3 carbon chain linkers, ((CH2)3)5; modified_base (21)..(21) gm; modified_base (22)..(22) um; modified_base (23)..(23) 2′-O-Methyladenosine; modified_base (24)..(24) gm; modified_b) [scrRNA, CpG ODN linked to scrambled RNA, control oligonucleotide]",mice that survived,CML LSCs,all of the mice treated with scrRNA alone died of leukemia
"Cc1cn(-c2cc(NC(=O)c3ccc(C)c(Nc4nccc(-c5cccnc5)n4)c3)cc(C(F)(F)F)c2)cn1 [NIL, nilotinib]",fraction of quiescent cells,"human CML HSCs; human CML HSCs, 5 μM NIL vs DMSO, cell cycle analysis",increased
same,SPRED1 levels,"human CML HSCs; human CML Lin-CD34+CD38− cells treated with NIL, compared with vehicle alone, QPCR",decreased
same,miR-126 expression,"human CML HSCs; human CML Lin-CD34+CD38− cells, NIL 2 μM or 5 μM, compared with vehicle alone, QPCR and miRNA staining",increased
same,miR-126 expression,human BCR-ABL+K562 cells,increased
same,day of 50 percent survival,"CML LT-HSCs; Tie2− mice (WT miR-126 in ECs) transplanted with CML LT-HSCs, untreated Tie2− approx. day 60",~150 days
same,survival at day 150,CML LT-HSCs; miR-126flox/wt/Tie2+ mice (heterozygous miR-126 KO in ECs) transplanted with CML LT-HSCs,all NIL-treated Tie2+ mice were alive
same,SPRED1 phosphorylation,[1],de-phosphorylation
same,binding and co-localization of SPRED1 with RAN,[1],decreased
same,formation of RAN/Exp-5/RCC1 complex,[1],increased
same,mature miR-126 levels,[1],increased
same,pri- and pre-miR-126 levels,[1],decreased
same,ratio of pri- and pre-miR-126 to mature miR-126 levels,[1],decreased
same,cell survival,"CML CD34+ cells; CML CD34+ cells, NIL treatment",promoted survival
same,BCL-2 expression,CML CD34+ cells; [2],increased
same,MAPK/ERK activation,CML CD34+ cells; [2],enhanced
O=C(NOC[C@H](O)CO)c1ccc(F)c(F)c1Nc1ccc(I)cc1F [PD0325901],NIL-induced apoptosis,"CML CD34+ cells; CML Lin-CD34+ cells, PD0325901 500 nM in combination with NIL, 72 h",enhanced
